# In ChEMBL document CHEMBL1152231, “Discovery of small molecule agonists for the bombesin receptor subtype 3 (BRS-3) based on an omeprazole lead” (Bioorg Med Chem Lett, 2008):
# Square brackets hold non-standard residues; d marks the D form. Peptide text beside a SMILES is read from it. Nle = CCCC[C@H](N)C(=O)O; βAla = NCCC(=O)O
# Experiments:
# [1] = molecular target: T1, Bombesin receptor subtype-3 (Homo sapiens, UniProt P32247); assay: Agonist activity at recombinant BRS-3 receptor expressed in baculovirus-transduced HEK293 cells assessed as intracellular calcium mobilization by FLIPR assay; format: functional
# T1 sequence (P32247 whole entry): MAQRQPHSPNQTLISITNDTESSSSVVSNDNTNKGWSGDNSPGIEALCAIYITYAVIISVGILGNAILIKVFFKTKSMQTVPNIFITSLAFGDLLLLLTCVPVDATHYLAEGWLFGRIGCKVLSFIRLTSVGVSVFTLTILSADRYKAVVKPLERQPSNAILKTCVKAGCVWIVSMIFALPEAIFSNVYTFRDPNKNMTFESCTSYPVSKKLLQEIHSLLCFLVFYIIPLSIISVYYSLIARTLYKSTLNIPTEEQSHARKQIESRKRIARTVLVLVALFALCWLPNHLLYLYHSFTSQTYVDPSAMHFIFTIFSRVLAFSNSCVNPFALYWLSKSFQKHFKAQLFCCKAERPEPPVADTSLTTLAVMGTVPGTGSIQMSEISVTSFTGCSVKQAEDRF
# [2] = molecular target: T2, Gastrin-releasing peptide receptor (Homo sapiens, UniProt P30550); assay: Agonist activity at recombinant gastrin releasing peptide receptor expressed in baculovirus-transduced HEK293 cells assessed as intracellular calcium mobilization by FLIPR assay; format: functional
# T2 sequence (P30550 whole entry): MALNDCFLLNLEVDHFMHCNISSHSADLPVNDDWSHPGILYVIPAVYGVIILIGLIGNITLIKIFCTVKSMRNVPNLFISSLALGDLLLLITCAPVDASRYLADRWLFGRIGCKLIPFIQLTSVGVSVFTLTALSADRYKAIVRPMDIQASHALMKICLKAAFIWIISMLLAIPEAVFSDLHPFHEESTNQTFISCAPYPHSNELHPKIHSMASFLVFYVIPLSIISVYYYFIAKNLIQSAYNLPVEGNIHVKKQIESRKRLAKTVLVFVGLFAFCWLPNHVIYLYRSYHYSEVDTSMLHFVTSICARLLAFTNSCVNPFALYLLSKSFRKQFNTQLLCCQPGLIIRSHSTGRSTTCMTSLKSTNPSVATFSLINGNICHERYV
# [3] = molecular target: T1, Bombesin receptor subtype-3; assay: Binding affinity to BRS-3 receptor
# [4] = molecular target: T3, Neuromedin-B receptor (Homo sapiens, UniProt P28336); assay: Agonist activity at recombinant neuromedin B receptor expressed in baculovirus-transduced HEK293 cells assessed as intracellular calcium mobilization by FLIPR assay; format: functional
# T3 sequence (P28336 whole entry): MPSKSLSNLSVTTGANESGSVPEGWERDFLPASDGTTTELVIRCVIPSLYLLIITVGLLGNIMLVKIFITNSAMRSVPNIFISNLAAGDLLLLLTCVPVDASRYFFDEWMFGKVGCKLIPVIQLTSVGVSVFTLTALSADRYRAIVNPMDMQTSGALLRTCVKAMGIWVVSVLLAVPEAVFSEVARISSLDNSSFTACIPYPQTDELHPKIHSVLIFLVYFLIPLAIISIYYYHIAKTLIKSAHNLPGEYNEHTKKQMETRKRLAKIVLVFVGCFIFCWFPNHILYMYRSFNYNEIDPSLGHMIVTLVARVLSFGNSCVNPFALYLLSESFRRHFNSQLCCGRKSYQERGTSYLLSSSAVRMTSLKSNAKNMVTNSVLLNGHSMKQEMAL
# [5] = molecular target: T2, Gastrin-releasing peptide receptor; assay: Binding affinity to gastrin releasing peptide receptor
# [6] = molecular target: T3, Neuromedin-B receptor; assay: Binding affinity to neuromedin B receptor
# [7] = molecular target: T4, Bombesin receptor subtype-3 (Homo sapiens) (UniProt P32247); assay: Agonist activity at recombinant BRS-3 receptor expressed in baculovirus-transduced HEK293 cells assessed as maximum response of intracellular calcium mobilization by FLIPR assay relative to D-Phe-Gln-Trp-Ala-Val-beta-Ala-His-Phe-Nle-NH2; format: functional
# T4 sequence (whole entry): T1 sequence (P32247 whole entry)
# [8] = Clearance in iv dosed rat; format: ADME, organism-based; conditions: in vivo
# [9] = Volume of distribution at steady state in iv dosed rat; format: ADME, organism-based; conditions: in vivo, read-out: Vdss
# [10] = Half life in iv dosed rat; format: ADME, organism-based; conditions: in vivo
Structure (SMILES),EC50 [1] [nM],%max [7] [%],further results
COc1ccc2[nH]c(SCc3ncc(C)c(OC)c3C)nc2c1 [UFIPRAZOLE],3900,64,–
COc1ccc2nc(C(C)Cc3cc4c(cc3Cl)OCO4)[nH]c2c1 (stereo not given),350,83,–
COc1ccc2oc(CCc3cc4c(cc3Cl)OCO4)nc2c1,> 32000,–,–
COc1ccc2nc(SCc3ccc(F)c(F)c3)[nH]c2c1,> 32000,–,–
COc1ccc2nc(NCc3cc4c(cc3Cl)OCO4)[nH]c2c1,> 32000,–,–
COc1ccc2sc(CCc3cc4c(cc3Cl)OCO4)nc2c1,> 32000,–,–
COc1ccc2nc(SCc3ccc4ccccc4c3)[nH]c2c1,> 32000,–,–
COc1ccc2nc(SCc3cc4c(cc3Cl)OCO4)[nH]c2c1,380,67,–
COc1ccc2nc(SCc3ccncc3)[nH]c2c1,> 32000,–,–
COc1cc(CSc2nc3ccc(OC)cc3[nH]2)cc(OC)c1,1600,68,–
Clc1cc2c(cc1OCc1nc3ccc(Oc4ccccc4)cc3[nH]1)OCO2,> 32000,–,–

# More lines, main results first:
EC50 [1] [nM],%max [7] [%],Structure (SMILES),further results
> 32000,–,COc1ccc2nc(CCc3cc4c(cc3Cl)OCO4)oc2c1,–
> 32000,–,COc1ccc2nc(/C=C/c3cc4c(cc3Cl)OCO4)[nH]c2c1,–
3.9,–,CCCC[C@H](NC(=O)[C@H](Cc1ccccc1)NC(=O)[C@H](Cc1c[nH]cn1)NC(=O)CCNC(=O)[C@@H](NC(=O)[C@H](C)NC(=O)[C@H](Cc1c[nH]c2ccccc12)NC(=O)[C@H](CCC(N)=O)NC(=O)[C@H](N)Cc1ccccc1)C(C)C)C(N)=O (H-[dF]QWAV[βAla]HF[Nle]-NH2),EC50 [2]: 0.06 nM; Ki [3]: 0.36 nM; EC50 [4]: 0.55 nM; Ki [5]: 0.99 nM; Ki [6]: 8.9 nM
210,82,COc1ccc2nc(CCc3cc4c(cc3Cl)OCO4)[nH]c2c1,–
> 32000,–,COc1ccc2nc(CCc3cc4c(cc3Cl)OCO4)sc2c1,–
14000,27,COc1ccc2[nH]c([S+]([O-])Cc3ncc(C)c(OC)c3C)nc2c1 (stereo not given) [OMEPRAZOLE],–
> 32000,–,COc1ccc2nc(SCc3n[nH]c4ccccc34)[nH]c2c1,–
> 32000,–,Cc1cc2nc(COc3cc4c(cc3Cl)OCO4)[nH]c2cc1Cl,–
570,59,Clc1ccc2nc(COc3cc4c(cc3Cl)OCO4)[nH]c2c1,–
510,71,COc1ccc2nc(COc3cc4c(cc3Cl)OCO4)[nH]c2c1,clearance [8]: 61 mL/min/kg; Vd [9]: 1.2 L/kg; half-life [10]: 30 min
240,69,FC(F)(F)c1ccc2nc(COc3cc4c(cc3Cl)OCO4)[nH]c2c1,–
> 32000,–,COc1ccc2nc(NC(=O)c3cc4c(cc3Cl)OCO4)[nH]c2c1,–
